Data published in US8877801B2, “Compounds and compositions as selective estrogen receptor degraders” (Novartis AG, priority 2013, dated 2014).
Read-outs that look alike come from different tables or passages of the source.

How the values were obtained:
ER = target: T1, ER (Homo sapiens, UniProt P03372); experiment: ER transcription assay (MCF7 cells), ERE-luciferase reporter; assay type: cell-based
T1 construct: transfected in MCF7 cells (containing endogenous ER); endogenous in cells; host or cells: MCF7 cells
T1 sequence (P03372 1-595): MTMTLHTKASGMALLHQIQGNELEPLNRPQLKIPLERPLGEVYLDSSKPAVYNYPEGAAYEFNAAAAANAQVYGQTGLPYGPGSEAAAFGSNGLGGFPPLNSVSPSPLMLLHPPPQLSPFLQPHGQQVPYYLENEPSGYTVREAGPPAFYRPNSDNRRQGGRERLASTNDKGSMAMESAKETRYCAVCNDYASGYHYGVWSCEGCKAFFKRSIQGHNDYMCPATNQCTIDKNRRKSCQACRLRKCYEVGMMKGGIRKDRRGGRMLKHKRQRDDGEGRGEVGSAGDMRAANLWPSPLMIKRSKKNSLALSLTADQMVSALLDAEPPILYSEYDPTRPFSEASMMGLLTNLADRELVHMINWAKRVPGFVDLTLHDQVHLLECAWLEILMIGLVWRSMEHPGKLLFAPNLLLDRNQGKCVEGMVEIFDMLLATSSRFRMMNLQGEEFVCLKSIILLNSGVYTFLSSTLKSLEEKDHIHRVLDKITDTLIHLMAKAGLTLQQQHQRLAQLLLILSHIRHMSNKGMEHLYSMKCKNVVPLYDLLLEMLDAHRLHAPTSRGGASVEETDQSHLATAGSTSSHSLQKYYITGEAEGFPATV
Excerpt: ER Transcription Assay (MCF7 Cells)
The ER transcription assay is a reporter assay that is based on the ability of ER to induce transcription from a luciferase reporter gene containing estrogen response elements (EREs) in the promoter/enhancer region. When the reporter gene is transfected in MCF7 cells (containing endogenous ER), transcription is reflected by the level of luciferase expression.
A day before transfection, cells are split into a T75 flask at a cell density of 300,000 cells/mL (10 mL total) and allowed to attach overnight in a humidified CO2 incubator at 37° C.
Approximately 20 ug DNA is mixed in OptiMEM (Invitrogen) to a total volume of 650 μL. Following incubation, the OptiMEM-DNA mixture is added to the OptiMEM-Lipofectin mix and incubated for 15 minutes at 37° C. The DNA-Lipofectin mixture is then added directly to the T75 flask and the flask is returned to the incubator.
After overnight incubation, compound is added to individual wells of a 96-well plate in a 10 μL volume of media at 10× concentration along with 17β estradiol whose final concentration is 0.1 nM. Normally, DMSO (used as a vehicle) is included to achieve a final concentration of 0.1% when added to the cells. Transfected cells are trypsinized, resuspended in DMEM/F12/10% charcoal-stripped serum and added to the 96-well plate at 25,000 cells/well in 90 μL of media. The plate is then returned to the incubator for 24 hours.
After incubation with compounds for 24 hours, Firefly and Renilla luciferase activities are measured to determine ER transcriptional activity. Media is removed from 96-well plates by decanting and blotting on paper towels.
One second total read time after a one second delay.
One second total read time after one second delay. If Firefly luciferase signal is high, Renilla assay must be done an hour after the Firefly assay due to incomplete squelching of Firefly signal.
(§1) The data describing the antagonist and degradation properties for the examples is compiled in table 10. The column titled MCF7 IC50 reports the inflection point of the inhibition of transcription in MCF7 cells as described above. Percentage ERα remaining reports the remaining ERα protein measured at 10 μM concentration of the ligand as described above. The column ERα IC50 reports the inflection point of the degradation in response to the ligand concentration.

ERα = target: T2, ERα (Homo sapiens, UniProt P03372); experiment: ERα degradation (MCF7 cells), in-cell Western; assay type: cell-based; details: for % ERα remaining: 10 μM concentration of the ligand, MCF7 cells, 18-24 hours, relative to DMSO control
T2 construct: transfected in MCF7 cells (containing endogenous ER); endogenous in cells; host or cells: MCF7 cells
T2 sequence (P03372 1-595): T1 sequence (P03372 1-595)
Procedure: ERα Degradation (MCF7 Cells)
as §1

[1] = MCF7 cells, ER reporter gene, 0.1 nM 17β estradiol, 24 hours, read-out: MCF7 IC50 (inflection point of the inhibition of transcription in MCF7 cells)
[2] = comparison of bond order between the phenyl and -C(O)OH, read-out: SERD IC50 MCF7 μM (antagonist activity)
[3] = comparison of groups at the X position, read-out: IC50 MCF7 μM (antagonist activity)
[4] = comparison of bond order between the phenyl and -C(O)OH
[5] = comparison of groups at the X position

CCCn1cncc1/C=C/c1ccc(Oc2c(-c3ccc(O)cc3)sc3cc(O)ccc23)cc1 [Example 75, (E)-2-(4-hydroxyphenyl)-3-(4-(2-(1-propyl-1H-imidazol-5-yl)vinyl)phenoxy)benzo[b] thiophen-6-ol]
IC50 (ER; [1]): 10 nM | % ERα remaining (ERα): 42%

Cc1cc(F)ccc1-c1sc2cc(O)ccc2c1Oc1ccc(/C=C/c2nnc(C3CC3)o2)cc1 [Example 76, (E)-3-(4-(2-(5-cyclopropyl-1,3,4-oxadiazol-2-yl)vinyl)phenoxy)-2-(4-fluoro-2-methylphenyl)benzo[b]-thiophen-6-ol]
IC50 (ER; [1]): 16 nM | % ERα remaining (ERα): 36%

O=C(O)/C=C/c1ccc(Oc2c(-c3ccc(O)cc3)sc3cc(O)ccc23)cc1 [Example 2, (E)-3-(4-((6-hydroxy-2-(4-hydroxyphenyl)benzo[b]thiophen-3-yl)oxy)phenyl)acrylic acid]
IC50 (ER; [1]): 748 nM | IC50 (ER; [2]): 748 nM | IC50 (ER; [3]): 748 nM | ER Percentage remaining (degradation potential) (ERα; [4]): 41% | ER Percentage remaining (degradation potential) (ERα; [5]): 41%

COc1cc(Oc2c(-c3ccc(O)cc3)sc3cc(O)ccc23)ccc1/C=C/C(=O)O [Example 58, (E)-3-(4-((6-hydroxy-2-(4-hydroxyphenyl)-benzo[b]thiophen-3-yl)oxy)-2-methoxyphenyl)acrylic acid]
IC50 (ER; [1]): 5020 nM | % ERα remaining (ERα): 35%

O=C(O)/C=C/c1ccc(C(=O)c2c(-c3ccc(O)cc3)sc3cc(O)ccc23)cc1 [reference compound]
IC50 (ER; [3]): > 10000 nM | ER Percentage remaining (degradation potential) (ERα; [5]): 60%

CCCn1cnc(/C=C/c2ccc(Oc3c(-c4ccc(O)cc4)sc4cc(O)ccc34)cc2)c1 [Example 74, (E)-2-(4-hydroxyphenyl)-3-(4-(2-(1-propyl-1H-imidazol-4-yl)vinyl)phenoxy)benzo [b]thiophen-6-ol]
IC50 (ER; [1]): 108 nM | % ERα remaining (ERα): 41%

CNC(=O)/C=C/c1ccc(Oc2c(-c3ccc(O)cc3)sc3cc(O)ccc23)cn1 [Example 71, (E)-3-(5-((6-hydroxy-2-(4-hydroxyphenyl)benzo[b]thiophen-3-yl)oxy)pyridin-2-yl)-N-methylacrylamide]
IC50 (ER; [1]): 53 nM | % ERα remaining (ERα): 39%

O=C(O)/C=C/c1ccc(-c2c(-c3ccc(O)cc3)sc3cc(O)ccc23)cc1 [reference compound]
IC50 (ER; [3]): > 10000 nM | ER Percentage remaining (degradation potential) (ERα; [5]): 76%

O=C(O)c1ccc(Oc2c(-c3ccc(O)cc3)sc3cc(O)ccc23)cc1 [reference compound]
IC50 (ER; [2]): ≥ 10000 nM | ER Percentage remaining (degradation potential) (ERα; [4]): 57%

CNC(=O)/C=C/c1ccc(Oc2c(-c3ccc(O)c(F)c3)sc3cc(O)ccc23)cc1 [Example 69, (E)-3-(4-((2-(3-fluoro-4-hydroxyphenyl)-6-hydroxybenzo[b]thiophen-3-yl)oxy)phenyl)-N-methylacrylamide]
IC50 (ER; [1]): 41 nM | % ERα remaining (ERα): 32%

Oc1ccc(-c2sc3cc(O)ccc3c2Oc2ccc(/C=C/c3c[nH]cn3)cc2)cc1 [Example 72, (E)-3-(4-(2-(1H-imidazol-4-yl)vinyl)phenoxy)-2-(4-hydroxyphenyl)benzo[b]thiophen-6-ol]
IC50 (ER; [1]): 125 nM | % ERα remaining (ERα): 47%

CNC(=O)/C=C/c1ccc(Oc2c(-c3ccc(C(F)(F)F)cc3)sc3cc(O)ccc23)cc1 [Example 70, (E)-3-(4-((6-hydroxy-2-(4-(trifluoromethyl)phenyl)benzo[b]thiophen-3-yl)oxy)phenyl)-N-methylacrylamide]
IC50 (ER; [1]): 269 nM | % ERα remaining (ERα): 41%

O=C(O)CCCc1ccc(Oc2c(-c3ccc(O)cc3)sc3cc(O)ccc23)cc1 [reference compound]
IC50 (ER; [2]): ≥ 10000 nM | ER Percentage remaining (degradation potential) (ERα; [4]): 55%

Cn1cnc(/C=C/c2ccc(Oc3c(-c4ccc(O)cc4)sc4cc(O)ccc34)cc2)c1 [Example 73, (E)-2-(4-hydroxyphenyl)-3-(4-(2-(1-methyl-1H-imidazol-4-yl)vinyl)phenoxy)-benzo[b]thiophen-6-ol]
IC50 (ER; [1]): 58 nM | % ERα remaining (ERα): 32%

O=C(/C=C/c1ccc(Oc2c(-c3ccc(O)cc3)sc3cc(O)ccc23)cc1)NCCO [Example 65, (E)-3-(4-((6-hydroxy-2-(4-hydroxyphenyl)benzo[b]-thiophen-3-yl)oxy)phenyl)-N-(2-hydroxyethyl)acrylamide]
IC50 (ER; [1]): 55 nM

O=C(O)/C=C/c1ccc(Oc2c(-c3ccc(C(F)F)cc3)sc3cc(O)ccc23)cc1 [Example 27, (E)-3-(4-((2-(4-(difluoromethyl)phenyl)-6-hydroxybenzo[b]thiophen-3-yl)oxy)phenyl)acrylic acid]
IC50 (ER; [1]): 7970 nM
